Where two headings read alike, the source gives them in different places.
Tests used:
[1] = molecular target: T1, 5-HT2A receptor (Homo sapiens, UniProt P28223); assay: PDSP secondary binding, 5-HT2A; parameters: species or system human or rodent
T1 construct: expressed in transfected cells
Protocol: (§1) GPCR panel: Screening against the receptors within the PDSP panel offers an assessment of off-target pharmacological activity at cloned human or rodent CNS receptors, channels, and transporters that could confound CNS-related phenotypes. A total of 46–47 primary binding assays were run in quadruplicate on these compounds at 10 μM, with follow-up secondary binding assays in 11-point dose-response in triplicate for select compounds versus select receptors. Secondary binding assays were executed for all receptors where test compound displaced an average of >50% of radio-labeled standard ligand. As an exception, no secondary assays were carried out for H3, PBR, or GABAA. […]

[2] = molecular target: T2, H4 receptor (Homo sapiens, UniProt Q9H3N8); assay: PDSP secondary binding, H4; parameters: species or system human or rodent
T2 construct: expressed in transfected cells
Protocol: as §1

[3] = test system: MerTK; parameters: method as in PubMed 25068800, 27649555; conditions: published affinity; ref PubMed 25068800, 27649555; cited from earlier work
[4] = test system: FLT3; parameters: method as in PubMed 25068800, 27649555; conditions: published affinity; ref PubMed 25068800, 27649555; cited from earlier work
[5] = test system: HMC3 (human microglia) immortalized cell line; conditions: 10 μM, human immortalized microglial cells; cited from earlier work
[6] = test system: tau hyperphosphorylation species (Ser396 and Ser404); parameters: method as in PMID 32488482; conditions: 5 mg/kg/day; cited from earlier work

T1 sequence (P28223 whole entry): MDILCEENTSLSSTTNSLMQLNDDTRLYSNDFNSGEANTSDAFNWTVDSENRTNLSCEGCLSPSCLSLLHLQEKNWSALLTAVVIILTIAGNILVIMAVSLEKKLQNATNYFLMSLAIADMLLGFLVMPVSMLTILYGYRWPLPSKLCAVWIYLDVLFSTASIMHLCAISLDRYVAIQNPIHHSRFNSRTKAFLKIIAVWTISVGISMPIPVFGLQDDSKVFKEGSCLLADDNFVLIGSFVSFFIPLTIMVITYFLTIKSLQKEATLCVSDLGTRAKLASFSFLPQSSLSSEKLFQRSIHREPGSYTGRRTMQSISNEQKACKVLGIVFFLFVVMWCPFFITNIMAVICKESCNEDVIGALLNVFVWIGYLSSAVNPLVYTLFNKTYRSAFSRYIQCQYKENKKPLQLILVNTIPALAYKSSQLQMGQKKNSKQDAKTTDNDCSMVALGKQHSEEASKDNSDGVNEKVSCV
T2 sequence (Q9H3N8 whole entry): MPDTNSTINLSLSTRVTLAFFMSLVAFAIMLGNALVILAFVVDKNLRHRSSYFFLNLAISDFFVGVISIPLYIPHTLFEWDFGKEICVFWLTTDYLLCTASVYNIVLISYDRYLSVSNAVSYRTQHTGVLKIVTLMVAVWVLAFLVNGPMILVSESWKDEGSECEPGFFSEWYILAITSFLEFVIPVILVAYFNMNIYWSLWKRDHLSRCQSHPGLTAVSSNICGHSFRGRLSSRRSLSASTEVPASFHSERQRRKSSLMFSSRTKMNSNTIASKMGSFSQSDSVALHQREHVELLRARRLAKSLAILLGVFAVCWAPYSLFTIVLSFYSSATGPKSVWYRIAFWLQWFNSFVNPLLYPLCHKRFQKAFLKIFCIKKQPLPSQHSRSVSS

## CCCCNc1ncc2c(-c3ccc(CN4CCN(C)CC4)cc3)cn([C@H]3CC[C@H](O)CC3)c2n1 [UNC2025C, UNC2025]
[1]; Receptor 5-HT2A, secondary assay, run 1, read-out: Ki (nM) 1
  Ki: 366 nM
[1]; Receptor 5-HT2A, secondary assay, run 2, read-out: Ki (nM) 2
  Ki: 462 nM
[1]; calculated Ki, secondary binding assay, read-out: Ki 5-HT2A
  Ki: 400 nM
[2]; Receptor H4, secondary assay, read-out: Ki (nM) 1
  Ki: 4000 nM
[2]; calculated Ki, secondary binding assay, read-out: Ki H4
  Ki: 4000 nM
[3]
  Reported on-target biochemical potency, MERTK: 0.74 nM
[4]
  Reported on-target biochemical potency, FLT3: 0.8 nM
[5]
  Human microglial cytotoxicity at 10 μM (<70% control): Y (The compound was found to be cytotoxic (cell count threshold: <70% control) when human immortalized microglial cells were dosed at 10 μM (Y: yes))

## CCC(=O)N1CCC(NC(=O)Nc2ccc(OC(F)(F)F)cc2)CC1 [UNC10302681A, TPPU]
[6]
  Tau hyperphosphorylation species (Ser396 and Ser404): reduction of tau hyperphosphorylation species

— publication PMC9005681, “Use of AD Informer Set compounds to explore validity of novel targets in Alzheimer's disease pathology” (Alzheimer's & Dementia : Translational Research & Clinical …, 2022)
